The numbers were not newly measured in patent US20080242855A1, “Process for Producing Flavone C Glycoside Derivatives” (priority 2004, published 2008), which cites them from elsewhere.

SMILES strings stand for the structures.

The subject of data set [1] is auricular edema induced by 2,4-dinitrofluorobenzen (DNFB). To be noted: reported in Japanese Patent Laid-Open No. 2004-035474.
The next data set deals with peritoneal mast cells. The note with it: reported in Japanese Patent Laid-Open No. 2004-035474.

Take `O=c1cc(-c2ccc(O)cc2)oc2cc3c(c(O)c12)[C@@H]1O[C@H](CO)[C@@H](O)[C@H](O)[C@@H]1O3` [formula (1)]: the “inhibitory effect on the formation of auricular edema induced by 2,4-dinitrofluorobenzen (DNFB)” value in data set [1] is given as “inhibitory effect”. Also, in the data set with peritoneal mast cells, the “inhibitory effect on histamine release from peritoneal mast cells” value is “inhibitory effect”.
In the case of `O=c1cc(-c2ccc(O)cc2)oc2c3c(cc(O)c12)O[C@H]1[C@@H](O)[C@H](O)[C@@H](CO)O[C@@H]31` [formula (4)], the “inhibitory effect on the formation of auricular edema induced by 2,4-dinitrofluorobenzen (DNFB)” value in data set [1] is “inhibitory effect”. The “inhibitory effect on histamine release from peritoneal mast cells” value with peritoneal mast cells is “inhibitory effect”.
